In the NIST ThermoML archive (doi:10.1021/je050005h):

Experiments:
[1] = xn = mol fraction of the nth substance listed; conditions: 101 kPa, Liquid
[2] = 101 kPa, Liquid

C1CCNCC1 [piperidine] + O
[1]
Conditions | kinematic viscosity, 293.15 K [m2/s] | kinematic viscosity, 303.15 K [m2/s] | kinematic viscosity, 313.15 K [m2/s] | kinematic viscosity, 323.15 K [m2/s] | mass density, 293.15 K [kg/m3] | mass density, 303.15 K [kg/m3] | mass density, 313.15 K [kg/m3] | mass density, 323.15 K [kg/m3]
x1 = 0.0055 | 1.11e-06 | 8.82e-07 | 7.18e-07 | 5.98e-07 | 997.07 | 994.34 | 990.68 | 986.17
x1 = 0.011 | 1.21e-06 | 9.53e-07 | 7.72e-07 | 6.36e-07 | 995.89 | 992.89 | 989.03 | 984.42
x1 = 0.028 | 1.5e-06 | 1.2e-06 | 9.42e-07 | 8.12e-07 | 992.43 | 987.87 | 982.66 | 976.92
x1 = 0.0573 | 2.2e-06 | 1.74e-06 | 1.33e-06 | 1.07e-06 | 985.56 | 979.56 | 973.25 | 966.6
x1 = 0.0986 | 3.55e-06 | 2.55e-06 | 1.88e-06 | 1.47e-06 | 974.58 | 967.57 | 960.35 | 952.86
x1 = 0.1795 | 5.94e-06 | 4.01e-06 | 2.81e-06 | 2.14e-06 | 955.67 | 947.6 | 939.32 | 930.84
x1 = 0.2672 | 7.62e-06 | 5.06e-06 | 3.48e-06 | 2.62e-06 | 940.18 | 931.55 | 922.71 | 913.66
x1 = 0.3536 | 8.02e-06 | 5.42e-06 | 3.71e-06 | 2.68e-06 | 927.85 | 918.89 | 909.73 | 900.37
x1 = 0.4387 | 7.04e-06 | 4.97e-06 | 3.49e-06 | 2.53e-06 | 917.5 | 908 | 899 | 889
x1 = 0.5225 | 6.09e-06 | 4.37e-06 | 3.1e-06 | 2.31e-06 | 906.51 | 897.28 | 887.84 | 878.22
x1 = 0.6458 | 4.49e-06 | 3.22e-06 | 2.33e-06 | 1.83e-06 | 892.99 | 883.65 | 874.16 | 864.51
x1 = 0.8454 | – | – | – | – | 875.08 | 865.74 | 856.27 | 846.67
x1 = 0.8455 | 2.6e-06 | 2e-06 | 1.62e-06 | 1.31e-06 | – | – | – | –
x1 = 1 | 1.79e-06 | 1.49e-06 | 1.25e-06 | 1.06e-06 | 863.81 | 854.5 | 845.08 | 835.56

C1CCNCC1 [piperidine]
[2]
Conditions | kinematic viscosity [m2/s] | mass density [kg/m3]
293.15 K | 1.79e-06 | 863.81
303.15 K | 1.49e-06 | 854.5
313.15 K | 1.25e-06 | 845.08
323.15 K | 1.06e-06 | 835.56

O [water] + C1CCNCC1
[1], x2 = 0
Conditions | kinematic viscosity [m2/s] | mass density [kg/m3]
293.15 K | 9.9e-07 | –
303.15 K | 8.1e-07 | –
313.15 K | 6.66e-07 | –
323.15 K | 5.61e-07 | 988.02

O [water] + C1CCNC1
[1], x2 = 0
Conditions | kinematic viscosity [m2/s] | mass density [kg/m3]
293.15 K | 9.9e-07 | –
303.15 K | 8.1e-07 | –
313.15 K | 6.66e-07 | –
323.15 K | 5.61e-07 | 988.02
